# Patent publication US20100197688A1, “EPHA4 RTK INHIBITORS FOR TREATMENT OF NEUROLOGICAL AND NEURODEGENERATIVE DISORDERS AND CANCER” (priority 2008, published 2010)
# How the values were obtained:
# C2C12 cells = assay: Toxicity (percent of cell death), C2C12 cells; assay type: cell-based; conditions: 20 μM
# Protocol: (§1) EphA4 kinase inhibition is assessed by both an enzymatic assay measuring the phosphorylation of a purified recombinant EphA4 kinase and a cell-based assay using the activation of pGas-Luciferase system in EphA4-transfected CHO-K1 cells. The functional effects of EphA4 RTK inhibitors on cell motility and proliferation is evaluated by the scratch wound assay. The effect of EphA4 RTK inhibitors is also directly measured on the cell confluence. The counterscreen assays (cell counterscreen, Src, Jak2 and P38α kinase) identified other potential inhibitory activities of compounds unrelated to EphA4 kinase. The toxicity is measured by the percent of cell death in the different cell assays. Values represent IC50 and IP in μM calculated from the dose-response curves. Values in parentheses give the maximum percent inhibition.
# [1] = test system: Primary Rat cortical astrocytes; assay: Toxicity (percent of cell death), astrocytes; assay type: cell-based; conditions: 20 μM
# Protocol: as §1
# [2] = test system: Primary Rat cortical astrocytes; assay: Scratch wound assay, astrocytes; assay type: cell-based
# Protocol: Primary Rat cortical astrocytes were purchased from Lonza (Walkersvelle Inc., MA, USA). Cells were plated in culture flasks at a density of 1.106-3.106 cells/ml, and maintained at 37° C. and […], in Astrocyte Growth Medium Bulletkit™ (Lonza Walkersville Inc., MA, USA). When astrocyte cultures reached confluence, cells were trypsinized and replated at 6.105 cells/ml onto 24 well ImageLock™ plate (Essen Instruments, Mich., USA).
# Scratch wound assays are commonly used to assess the effects of drugs and drug candidates on the cellular proliferation and/or migration associated with wound closing. The IncuCyte™ system (Essen Instruments, Mich., USA), an automated imaging platform, provides ongoing, real-time images and quantitative data generated throughout the wound-closing process. […] Wound closure can be automatically monitored using the wound confluence (% confluence). […]
# The calculation of the area under the curve (AUC) of the % confluence function of the time gave a quantitative measurement of compounds efficacy on the scratch wound closing. […] The percentage of inhibition was calculated from the AUCs at each dose in comparison with the AUCs of the control wells (1% DMSO). Concentration-response curves were represented and the concentrations at the inflexion point (IP) were calculated. […]
# P38alpha kinase = biological target: T1, P38alpha kinase (Homo sapiens, UniProt Q16539); assay: P38 alpha kinase counterscreen assay (Caliper); assay type: biochemical
# T1 construct: purchased Dundee Library
# Protocol: A counterscreen assay was performed to measure p38alpha kinase activity using the Caliper System (LifeSciences, USA). This system is based on the microfluidic technology. P38 alpha kinase activity was measured by the shift in mobility of the non-phosphorylated form when separated by electrophoresis and detected via LED (Light Emitting Diode) induced fluorescence. This assay was automated following the manufacturer's protocol. P38alpha kinase and its substrate GST-MK2 were bought from Dundee Library.
# Compounds were titrated, concentration-response curves were represented and the concentrations for 50% inhibition (IC50) were calculated.
# [3] = test system: Primary Rat cortical astrocytes; assay: Proliferation assay (cell confluence), astrocytes; assay type: cell-based; conditions: at 5 μM
# Protocol: C2C12 were plated at 15,000 cells per well and then differentiated into myotubes with DMEM supplemented with 2% horse serum for 3 days in 24 well ImageLock™ plate (Essen Instruments, Mich., USA). Primary Rat cortical astrocytes were plated at 3.105 cells/ml onto 24 well ImageLock™ plate.
# Cells were placed into the IncuCyte™ at 37° C. and 95% CO2/5% O2, for two to three days. During this time, the cells within each well were repeatedly imaged at fixed time intervals (every three hours). The IncuCyte™ system automatically monitored the proliferation using the percentage of confluence. Percent of confluence can be graphed over time to evaluate the characteristics of proliferation in the presence of pharmacological agents.
# […] The percentage of reduction of cell confluence was calculated from the AUCs in comparison with the AUCs of the control wells (1% DMSO).
# T1 sequence (Q16539 whole entry): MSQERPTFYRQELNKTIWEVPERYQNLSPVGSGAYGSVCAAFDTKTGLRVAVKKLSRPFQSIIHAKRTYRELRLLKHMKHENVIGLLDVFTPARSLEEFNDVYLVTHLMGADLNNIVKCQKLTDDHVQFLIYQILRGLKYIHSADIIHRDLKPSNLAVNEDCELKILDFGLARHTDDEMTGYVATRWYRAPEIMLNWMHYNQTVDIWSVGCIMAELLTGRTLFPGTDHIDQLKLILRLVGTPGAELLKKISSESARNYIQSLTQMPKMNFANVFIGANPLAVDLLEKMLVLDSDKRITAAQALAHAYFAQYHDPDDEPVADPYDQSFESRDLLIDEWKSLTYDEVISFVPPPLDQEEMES
Structure (SMILES),Max Toxicity C2C12 in cells % of cell death (C2C12 cells) [% 20 μM],Max Toxicity Astrocytes % of cell death [1] [% 20 μM],"IC50 ([2]; Rattus norvegicus, Astrocyte, inflexion point, from AUC of % wound confluence, read-out: Scratch Assay Astrocytes IP) [µM]",Scratch Assay Astrocytes max inhibition in % ([2]; value in parentheses) [%],IC50 (P38alpha kinase) [µM],% Reduction of Confluence Astrocytes [3] [% at 5 μM]
Cc1ccc(NC(=O)c2cccc(C(F)(F)F)c2)cc1-c1ccc(-n2cccn2)cc1 [Example 120],10,–,–,–,–,–
Cc1ccc(NC(=O)c2cccc(C(F)(F)F)c2)cc1-c1ccc(O)c(NC=O)c1 [Example 133],10,0,5,50,6.9,28.2
